Experiments:
[1] = tested on: stomatitis aggravated by 5-FU (cheek pouch mucosa); test: Effects of Compound A on stomatitis: 5-FU plus cheek pouch scratching, hamster; format: in vivo, Golden Syrian hamsters
Experimental: Male Golden Syrian hamsters (5 weeks old) were used. After 1 week acclimatization period, the hamsters were administered intraperitoneally with 60 mg/kg 5-fluorouracil (5-FU) (Day 1). 5-FU administration was repeated again on Day 2. On Day 4, the cheek pouch mucosa of the hamsters is mechanically irritated under anesthesia by superficial scratching with the tip of an 18-gauge needle to produce transient erythema. On Day 8 and 10, the same scratching procedure was conducted and 5-FU administration was done. The Compound A at the doses of 24 μg/site or vehicle was topically applied to the cheek pouches from Day 1 to Day 14. During the treatment, the cheek pouch mucosa was macroscopically observed and the buccal lesion was scored according to the following criteria (stomatitis score): • 0: Normal mucosa • 1: Erythema was observed • 2: Severe erythema was observed • 3: Severe erythema and formation of ulcers in one or more places were observed. Cumulative size of the ulcers involves ˜25% of the pouch mucosa. Pseudomembrane formation was evident. • 4: Severe erythema and formation of ulcers were observed. Cumulative size of the ulcers involved about half of the pouch mucosa. Loss of mucosal pliability. • 5: diffuse, extensive ulceration. Loss of mucosal pliability. […] Severity of stomatitis was evaluated using the mean of scores per treatment group.

[2] = tested on: 5-FU induced toxicity (ileum tissue damage); test: Effects of Compound A against 5-FU induced toxicity: histopathological tissue damage score of ileum; format: in vivo; conditions: for Total score (tissue damage): 5-FU 50 mg/kg i.p. Day 1 to 4, ileum H&E on Day 7
Experimental: After 1 week of acclimatization period, the experiment started (Day 0). Compound A ((−)-7-{(2R,4aR,5R,7aR)-2-[(3S)-1,1-difluoro-3-methylpentyl]-2-hydroxy-6-oxooctahydrocyclopenta[b]pyran-5-yl}heptanoic acid) (3, 10, 30 μg/kg) or vehicle was administered orally once daily for 5 days from Day 0 to 4 (Schedule 1). In other dosing schedule group, Compound A (30 μg/kg) was administered orally once daily from Day 4 to Day 6 (Schedule 2). 5-FU (50 mg/kg) was administered intraperitoneally once daily for 4 days from Day 1 to 4. On Day 1, 2, 3, and 4,5-FU was administered immediately after administration of Compound A or vehicle. During the experiment period (Day 0-7), animals were weighed every day. On Day 7, the animals were anesthetized by isofluran. Ileum was excised and fixed in 10% formalin. Paraffin-embedded sections were prepared and stained with H&E for histopathological evaluation of tissue damage. The tissue damage was graded according to the following criteria: • 0. No change, • 1: slight, • 2: mild, • 3: moderate, • 4: severe The effect of each compound was evaluated using total score of tissue damage.

## CC[C@H](C)CC(F)(F)[C@@]1(O)CC[C@H]2[C@@H](CC(=O)[C@@H]2CCCCCCC(=O)O)O1 [Compound A, (−)-7-{(2R,4aR,5R,7aR)-2-[(3S)-1,1-difluoro-3-methylpentyl]-2-hydroxy-6-oxooctahydrocyclopenta[b]pyran-5-yl}heptanoic acid]
[1]; 24 μg/site topical, stomatitis aggravated by 5-FU treatment
  Effect on stomatitis compared to vehicle control group (in words): improved stomatitis
[1]; 24 μg/site topically to cheek pouches Day 1 to Day 14, 5-FU treatment yes, score 0-5, p < 0.05 vs. vehicle control
  stomatitis score on Day 14 (Mean ± SE): 0.25 ± 0.25
[2]; Compound A 3 μg/kg orally once daily, Schedule 1 (Day 0 to 4)
  Total score (tissue damage): 10.0
[2]; Compound A 10 μg/kg orally once daily, Schedule 1 (Day 0 to 4)
  Total score (tissue damage): 5.0
[2]; Compound A 30 μg/kg orally once daily, Schedule 1 (Day 0 to 4)
  Total score (tissue damage): 5.7
[2]; Compound A 30 μg/kg orally once daily, Schedule 2 (Day 4 to Day 6)
  Total score (tissue damage): 4.3
[2]; at 10 or 30 μg/kg regardless of the dosing schedule
  Effect on total score of tissue damage (in words): decreased total scores
